According to PubChem BioAssay (NCI):
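In this assay, cells in 96-well plates receive the compound at five concentrations for 48 hours. Endpoints are linearly interpolated between the surrounding concentrations. TGI is the concentration that stops growth completely.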

Tests used:
Assay in all cases: NCI tumour cell line growth inhibition, 48 h
[1] = tested on: RXF-631 renal
[2] = tested on: PC-3 prostate
[3] = tested on: DU-145 prostate
[4] = tested on: MDA-N
[5] = tested on: BT-549 breast
[6] = tested on: HS 578T breast
[7] = tested on: T-47D breast
[8] = tested on: SR leukemia
[9] = tested on: 786-0 renal
[10] = tested on: MDA-MB-231 breast
[11] = tested on: P388/ADR leukemia
[12] = tested on: P388 leukemia

For `COc1ccc(/C(Cl)=C(\C=O)c2ccc(OC)c(OC)c2)cc1`, the TGI [1] was > 100 µM.
`CC(=O)O/C(=C1\C[C@H]2[C@@H]3CC=C4C[C@@H](OC(C)=O)CC[C@]4(C)[C@H]3CC[C@]2(C)C1=O)C(F)(F)F` gave a TGI [2] of 27.3 µM, a TGI [3] of 25.2 µM and a TGI [4] of 14.9 µM. It also gave a TGI [5] of 34.7 µM, a TGI [6] of 20.8 µM and a TGI [7] of 21.2 µM. For the same compound, the TGI [8] was 10.9 µM, the TGI [9] was 20.6 µM and the TGI [10] was 27.6 µM.
For `COc1cc(N=Nc2cccc(S(=O)(=O)O)c2)ccc1N=Nc1ccc(/C=C/c2ccc(-n3on3-c3ccc(/C=C/c4ccc(N=Nc5ccc(N=Nc6cccc(S(=O)(=O)O)c6)cc5OC)cc4S(=O)(=O)O)c(S(=O)(=O)O)c3)cc2S(=O)(=O)O)c(S(=O)(=O)O)c1`, the TGI [11] was > 100 µM and the TGI [12] was > 100 µM.
